Test results from PubChem BioAssay (NCI).
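Five concentrations, 48 hours, 96-well plates. GI50 = concentration required for 50% inhibition of growth. TGI marks complete inhibition of growth.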

System: SK-MEL-28 melanoma
Assay: inhibition of tumour cell growth, NCI panel, 48 h

In order of falling GI50:
1. CCCCCN(CCCCC)CC(O)c1ccc(Cl)c2ccccc12 (stereo not drawn)  11.2 µM
2. O=C(/C(=C/c1cccc([N+](=O)[O-])c1)c1ccccc1)c1ccccc1  2.84 µM
3. Cc1ccc(NC(=O)c2sc3nc(C)c(C(O)c4ccccc4)cc3c2N)cc1 (stereo not drawn)  0.772 µM

First: O=C(/C(=C/c1cccc([N+](=O)[O-])c1)c1ccccc1)c1ccccc1
Second: Cc1ccc(NC(=O)c2sc3nc(C)c(C(O)c4ccccc4)cc3c2N)cc1 (stereo not drawn)
The TGI of the first is lower: 8.97 µM for the first, > 100 µM for the second.

Compared with `CCCCCN(CCCCC)CC(O)c1ccc(Cl)c2ccccc12` (stereo not drawn), `CC(=O)Nc1ccc2[nH]c(C(=O)N3CC(CCl)c4c3cc(N)c3ccccc43)cc2c1` (stereo not drawn) is 320-fold lower in TGI: 24.4 µM for the first, 0.0761 µM for the second.

System: SK-MEL-5 melanoma
Assay: inhibition of tumour cell growth, NCI panel, 48 h

In order of rising GI50:
1. Cc1ccc(NC(=O)c2sc3nc(C)c(C(O)c4ccccc4)cc3c2N)cc1 (stereo not drawn)  0.417 µM
2. O=C(/C(=C/c1cccc([N+](=O)[O-])c1)c1ccccc1)c1ccccc1  2.39 µM
3. CCCCCN(CCCCC)CC(O)c1ccc(Cl)c2ccccc12 (stereo not drawn)  8.39 µM

Compared with `O=C(/C(=C/c1cccc([N+](=O)[O-])c1)c1ccccc1)c1ccccc1`, `Cc1ccc(NC(=O)c2sc3nc(C)c(C(O)c4ccccc4)cc3c2N)cc1` (stereo not drawn) is higher in TGI: 6.73 µM for the first, > 41.8 µM for the second.

Compared with `CCCCCN(CCCCC)CC(O)c1ccc(Cl)c2ccccc12` (stereo not drawn), `CC(=O)Nc1ccc2[nH]c(C(=O)N3CC(CCl)c4c3cc(N)c3ccccc43)cc2c1` (stereo not drawn) is 780-fold lower in TGI: 20.8 µM for the first, 0.0267 µM for the second.

System: SK-OV-3 ovarian
Assay: inhibition of tumour cell growth, NCI panel, 48 h

In order of rising GI50:
1. Cc1ccc(NC(=O)c2sc3nc(C)c(C(O)c4ccccc4)cc3c2N)cc1 (stereo not drawn)  0.768 µM
2. O=C(/C(=C/c1cccc([N+](=O)[O-])c1)c1ccccc1)c1ccccc1  3.69 µM
3. CCCCCN(CCCCC)CC(O)c1ccc(Cl)c2ccccc12 (stereo not drawn)  13.8 µM

In order of rising TGI:
1. CC(=O)Nc1ccc2[nH]c(C(=O)N3CC(CCl)c4c3cc(N)c3ccccc43)cc2c1 (stereo not drawn)  2.18 µM
2. O=C(/C(=C/c1cccc([N+](=O)[O-])c1)c1ccccc1)c1ccccc1  10.2 µM
3. Cc1ccc(NC(=O)c2sc3nc(C)c(C(O)c4ccccc4)cc3c2N)cc1 (stereo not drawn)  30.6 µM
4. CCCCCN(CCCCC)CC(O)c1ccc(Cl)c2ccccc12 (stereo not drawn)  37.5 µM

System: SN12C renal
Assay: inhibition of tumour cell growth, NCI panel, 48 h

In order of rising GI50:
1. Cc1ccc(NC(=O)c2sc3nc(C)c(C(O)c4ccccc4)cc3c2N)cc1 (stereo not drawn)  0.664 µM
2. O=C(/C(=C/c1cccc([N+](=O)[O-])c1)c1ccccc1)c1ccccc1  3.54 µM
3. CCCCCN(CCCCC)CC(O)c1ccc(Cl)c2ccccc12 (stereo not drawn)  10.6 µM

In order of falling TGI:
1. O=C(/C(=C/c1cccc([N+](=O)[O-])c1)c1ccccc1)c1ccccc1  79.8 µM
2. Cc1ccc(NC(=O)c2sc3nc(C)c(C(O)c4ccccc4)cc3c2N)cc1 (stereo not drawn)  25.9 µM
3. CCCCCN(CCCCC)CC(O)c1ccc(Cl)c2ccccc12 (stereo not drawn)  24.6 µM
4. CC(=O)Nc1ccc2[nH]c(C(=O)N3CC(CCl)c4c3cc(N)c3ccccc43)cc2c1 (stereo not drawn)  0.0751 µM

System: SNB-19 CNS
Assay: inhibition of tumour cell growth, NCI panel, 48 h

In order of falling GI50:
1. CCCCCN(CCCCC)CC(O)c1ccc(Cl)c2ccccc12 (stereo not drawn)  12.7 µM
2. O=C(/C(=C/c1cccc([N+](=O)[O-])c1)c1ccccc1)c1ccccc1  5.15 µM
3. Cc1ccc(NC(=O)c2sc3nc(C)c(C(O)c4ccccc4)cc3c2N)cc1 (stereo not drawn)  0.542 µM

Compared with `O=C(/C(=C/c1cccc([N+](=O)[O-])c1)c1ccccc1)c1ccccc1`, `Cc1ccc(NC(=O)c2sc3nc(C)c(C(O)c4ccccc4)cc3c2N)cc1` (stereo not drawn) is higher in TGI: 19.7 µM for the first, > 100 µM for the second.

Compared with `CCCCCN(CCCCC)CC(O)c1ccc(Cl)c2ccccc12` (stereo not drawn), `CC(=O)Nc1ccc2[nH]c(C(=O)N3CC(CCl)c4c3cc(N)c3ccccc43)cc2c1` (stereo not drawn) is 120-fold lower in TGI: 30.1 µM for the first, 0.259 µM for the second.

System: SNB-75 CNS
Assay: inhibition of tumour cell growth, NCI panel, 48 h

In order of rising GI50:
1. Cc1ccc(NC(=O)c2sc3nc(C)c(C(O)c4ccccc4)cc3c2N)cc1 (stereo not drawn)  0.245 µM
2. O=C(/C(=C/c1cccc([N+](=O)[O-])c1)c1ccccc1)c1ccccc1  2.3 µM
3. CCCCCN(CCCCC)CC(O)c1ccc(Cl)c2ccccc12 (stereo not drawn)  11.7 µM

In order of falling TGI:
1. CCCCCN(CCCCC)CC(O)c1ccc(Cl)c2ccccc12 (stereo not drawn)  35.8 µM
2. Cc1ccc(NC(=O)c2sc3nc(C)c(C(O)c4ccccc4)cc3c2N)cc1 (stereo not drawn)  13.6 µM
3. O=C(/C(=C/c1cccc([N+](=O)[O-])c1)c1ccccc1)c1ccccc1  7.65 µM

System: SR leukemia
Assay: inhibition of tumour cell growth, NCI panel, 48 h

In order of falling GI50:
1. CCCCCN(CCCCC)CC(O)c1ccc(Cl)c2ccccc12 (stereo not drawn)  4.11 µM
2. O=C(/C(=C/c1cccc([N+](=O)[O-])c1)c1ccccc1)c1ccccc1  2.7 µM
3. Cc1ccc(NC(=O)c2sc3nc(C)c(C(O)c4ccccc4)cc3c2N)cc1 (stereo not drawn)  0.283 µM

`O=C(/C(=C/c1cccc([N+](=O)[O-])c1)c1ccccc1)c1ccccc1` and `Cc1ccc(NC(=O)c2sc3nc(C)c(C(O)c4ccccc4)cc3c2N)cc1` (stereo not drawn) cannot be ordered by TGI: > 100 µM for the first, > 25.6 µM for the second.

First: CCCCCN(CCCCC)CC(O)c1ccc(Cl)c2ccccc12 (stereo not drawn)
Second: CC(=O)Nc1ccc2[nH]c(C(=O)N3CC(CCl)c4c3cc(N)c3ccccc43)cc2c1 (stereo not drawn)
The TGI of the first is 490-fold higher: 14.7 µM for the first, 0.0298 µM for the second.

System: SW-620 colon
Assay: inhibition of tumour cell growth, NCI panel, 48 h

In order of rising GI50:
1. Cc1ccc(NC(=O)c2sc3nc(C)c(C(O)c4ccccc4)cc3c2N)cc1 (stereo not drawn)  0.355 µM
2. CCCCCN(CCCCC)CC(O)c1ccc(Cl)c2ccccc12 (stereo not drawn)  2.77 µM
3. O=C(/C(=C/c1cccc([N+](=O)[O-])c1)c1ccccc1)c1ccccc1  3.1 µM

Going from `O=C(/C(=C/c1cccc([N+](=O)[O-])c1)c1ccccc1)c1ccccc1` to `Cc1ccc(NC(=O)c2sc3nc(C)c(C(O)c4ccccc4)cc3c2N)cc1` (stereo not drawn), the TGI rises from 9.19 µM to 52.7 µM (5.7-fold).

First: CCCCCN(CCCCC)CC(O)c1ccc(Cl)c2ccccc12 (stereo not drawn)
Second: CC(=O)Nc1ccc2[nH]c(C(=O)N3CC(CCl)c4c3cc(N)c3ccccc43)cc2c1 (stereo not drawn)
The TGI of the first is lower: 13.6 µM for the first, > 100 µM for the second.

System: T-47D breast
Assay: inhibition of tumour cell growth, NCI panel, 48 h

In order of rising GI50:
1. Cc1ccc(NC(=O)c2sc3nc(C)c(C(O)c4ccccc4)cc3c2N)cc1 (stereo not drawn)  0.471 µM
2. O=C(/C(=C/c1cccc([N+](=O)[O-])c1)c1ccccc1)c1ccccc1  3.42 µM
3. CCCCCN(CCCCC)CC(O)c1ccc(Cl)c2ccccc12 (stereo not drawn)  4.93 µM

Compared with `O=C(/C(=C/c1cccc([N+](=O)[O-])c1)c1ccccc1)c1ccccc1`, `Cc1ccc(NC(=O)c2sc3nc(C)c(C(O)c4ccccc4)cc3c2N)cc1` (stereo not drawn) is higher in TGI: 15.5 µM for the first, > 58.3 µM for the second.

`CCCCCN(CCCCC)CC(O)c1ccc(Cl)c2ccccc12` (stereo not drawn) gave a TGI of 19.4 µM.

System: TK-10 renal
Assay: inhibition of tumour cell growth, NCI panel, 48 h

In order of rising GI50:
1. Cc1ccc(NC(=O)c2sc3nc(C)c(C(O)c4ccccc4)cc3c2N)cc1 (stereo not drawn)  2.12 µM
2. O=C(/C(=C/c1cccc([N+](=O)[O-])c1)c1ccccc1)c1ccccc1  4.19 µM
3. CCCCCN(CCCCC)CC(O)c1ccc(Cl)c2ccccc12 (stereo not drawn)  15.5 µM

In order of falling TGI:
1. Cc1ccc(NC(=O)c2sc3nc(C)c(C(O)c4ccccc4)cc3c2N)cc1 (stereo not drawn)  36.4 µM
2. CCCCCN(CCCCC)CC(O)c1ccc(Cl)c2ccccc12 (stereo not drawn)  33.9 µM
3. O=C(/C(=C/c1cccc([N+](=O)[O-])c1)c1ccccc1)c1ccccc1  21.4 µM

System: U251 CNS
Assay: inhibition of tumour cell growth, NCI panel, 48 h

In order of falling GI50:
1. CCCCCN(CCCCC)CC(O)c1ccc(Cl)c2ccccc12 (stereo not drawn)  12.3 µM
2. O=C(/C(=C/c1cccc([N+](=O)[O-])c1)c1ccccc1)c1ccccc1  2.72 µM
3. Cc1ccc(NC(=O)c2sc3nc(C)c(C(O)c4ccccc4)cc3c2N)cc1 (stereo not drawn)  0.384 µM

In order of falling TGI:
1. CCCCCN(CCCCC)CC(O)c1ccc(Cl)c2ccccc12 (stereo not drawn)  28.6 µM
2. Cc1ccc(NC(=O)c2sc3nc(C)c(C(O)c4ccccc4)cc3c2N)cc1 (stereo not drawn)  22.4 µM
3. O=C(/C(=C/c1cccc([N+](=O)[O-])c1)c1ccccc1)c1ccccc1  8.16 µM

System: UACC-257 melanoma
Assay: inhibition of tumour cell growth, NCI panel, 48 h

In order of falling GI50:
1. CCCCCN(CCCCC)CC(O)c1ccc(Cl)c2ccccc12 (stereo not drawn)  18.8 µM
2. O=C(/C(=C/c1cccc([N+](=O)[O-])c1)c1ccccc1)c1ccccc1  4.17 µM
3. Cc1ccc(NC(=O)c2sc3nc(C)c(C(O)c4ccccc4)cc3c2N)cc1 (stereo not drawn)  4.09 µM

First: O=C(/C(=C/c1cccc([N+](=O)[O-])c1)c1ccccc1)c1ccccc1
Second: Cc1ccc(NC(=O)c2sc3nc(C)c(C(O)c4ccccc4)cc3c2N)cc1 (stereo not drawn)
The TGI of the first is lower: 18.8 µM for the first, > 100 µM for the second.

Going from `CCCCCN(CCCCC)CC(O)c1ccc(Cl)c2ccccc12` (stereo not drawn) to `CC(=O)Nc1ccc2[nH]c(C(=O)N3CC(CCl)c4c3cc(N)c3ccccc43)cc2c1` (stereo not drawn), the TGI falls from 38.7 µM to < 0.01 µM.

System: UACC-62 melanoma
Assay: inhibition of tumour cell growth, NCI panel, 48 h

In order of rising GI50:
1. Cc1ccc(NC(=O)c2sc3nc(C)c(C(O)c4ccccc4)cc3c2N)cc1 (stereo not drawn)  0.621 µM
2. O=C(/C(=C/c1cccc([N+](=O)[O-])c1)c1ccccc1)c1ccccc1  2.8 µM
3. CCCCCN(CCCCC)CC(O)c1ccc(Cl)c2ccccc12 (stereo not drawn)  6.25 µM

Compared with `O=C(/C(=C/c1cccc([N+](=O)[O-])c1)c1ccccc1)c1ccccc1`, `Cc1ccc(NC(=O)c2sc3nc(C)c(C(O)c4ccccc4)cc3c2N)cc1` (stereo not drawn) is higher in TGI: 12.1 µM for the first, > 100 µM for the second.

Going from `CCCCCN(CCCCC)CC(O)c1ccc(Cl)c2ccccc12` (stereo not drawn) to `CC(=O)Nc1ccc2[nH]c(C(=O)N3CC(CCl)c4c3cc(N)c3ccccc43)cc2c1` (stereo not drawn), the TGI falls from 22.2 µM to < 0.0157 µM.

System: UO-31 renal
Assay: inhibition of tumour cell growth, NCI panel, 48 h

In order of rising GI50:
1. Cc1ccc(NC(=O)c2sc3nc(C)c(C(O)c4ccccc4)cc3c2N)cc1 (stereo not drawn)  0.72 µM
2. O=C(/C(=C/c1cccc([N+](=O)[O-])c1)c1ccccc1)c1ccccc1  2.21 µM
3. CCCCCN(CCCCC)CC(O)c1ccc(Cl)c2ccccc12 (stereo not drawn)  5.16 µM

In order of rising TGI:
1. O=C(/C(=C/c1cccc([N+](=O)[O-])c1)c1ccccc1)c1ccccc1  5.85 µM
2. CCCCCN(CCCCC)CC(O)c1ccc(Cl)c2ccccc12 (stereo not drawn)  20.6 µM
3. Cc1ccc(NC(=O)c2sc3nc(C)c(C(O)c4ccccc4)cc3c2N)cc1 (stereo not drawn)  41.6 µM
